The numbers were not newly measured in patent US8912356B2, “DCC mediated coupling for halofenate manufacture” (Metabolex, Inc., priority 2013, dated 2014), which cites them from elsewhere.

The conditions of data set [1]: administration of racemic mixture.
Data set [2] has as its target cytochrome P450 2C9 (Homo sapiens, UniProt P11712). Conditions: relative to (+)-enantiomer of halofenic acid.

cytochrome P450 2C9, sequence (P11712 whole entry): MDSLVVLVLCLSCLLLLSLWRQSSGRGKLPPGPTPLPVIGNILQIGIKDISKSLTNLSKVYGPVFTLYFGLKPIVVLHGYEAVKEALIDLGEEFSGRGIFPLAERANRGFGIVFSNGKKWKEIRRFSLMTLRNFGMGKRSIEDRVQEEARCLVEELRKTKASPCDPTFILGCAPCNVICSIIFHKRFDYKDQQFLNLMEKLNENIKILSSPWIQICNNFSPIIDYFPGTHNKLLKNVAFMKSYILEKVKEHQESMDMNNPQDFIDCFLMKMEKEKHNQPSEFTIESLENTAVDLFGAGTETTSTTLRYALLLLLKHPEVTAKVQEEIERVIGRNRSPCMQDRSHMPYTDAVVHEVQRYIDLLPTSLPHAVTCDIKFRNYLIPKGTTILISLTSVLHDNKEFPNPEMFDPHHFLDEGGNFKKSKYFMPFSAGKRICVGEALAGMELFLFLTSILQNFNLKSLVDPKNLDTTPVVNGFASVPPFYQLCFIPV

As for `CC(=O)NCCOC(=O)C(Oc1cccc(C(F)(F)F)c1)c1ccc(Cl)cc1` (racemic) [halofenate, 2-acetamidoethyl (4-chlorophenyl) (3-trifluoromethylphenoxy)acetate], in data set [1], the plasma glucose entry is “lowering”, the serum uric acid result is “lowering” and the triglycerides entry is “lowering”. Further, under “racemic halofenate, with Coumadin”, the “potential adverse drug-drug interactions” value is listed as “difficulties controlling anticoagulation with Coumadin™”. Moreover, where the note is “racemic mixture”, the adverse effects result is “nausea, gastrointestinal ulcers, and gastrointestinal bleeding”.
With `O=C(O)[C@H](Oc1cccc(C(F)(F)F)c1)c1ccc(Cl)cc1` [(−)-enantiomer of halofenic acid, (−)-4-chloro-α-(3-trifluoromethylphenoxy)phenylacetic acid], the “ability to inhibit cytochrome P450 2C9 compared to the (+)-enantiomer” value in data set [2] is given as “about twenty-fold less active”.
